Paper PMC4450297, “Screening Active Compounds from Garcinia Species Native to China Reveals Novel Compounds Targeting the STAT/JAK Signaling Pathway” (BioMed Research International, 2015)

tested on: A498; assay: Cell panel screen (CellTiter-Glo); assay type: cell-based, human; details: A498 (listed under Lung), 20 micromolar, 72 hrs
Procedure: (§1) All cells were obtained from the cell bank of the American Type Culture Collection (ATCC) and cultured in the supplier's recommended media supplemented with 10% FBS. The cell panel screen was measured using the CellTiter-Glo assay (Promega, Madison, WI) following a standard protocol. Briefly, cancer cells were seeded in 96-well plates and cultured overnight at 37°C with or without 5% CO2 in an incubator. Each compound was dissolved with limited DMSO and diluted to a certain concentration with culture medium and then added to the corresponding well of the cell plate. The final concentration of compound was 20 μM. The control cells (without treatment) received the same amount of DMSO and were incubated under the same conditions. After 72 h cultivation, 100 μL of the CellTiter-Glo reagent was added directly to each well for 10-minute incubation. The plate was then read on a FlexStation 3 microplate luminometer (Molecular Devices, USA) to monitor the luminescence signal generated by the luciferase-catalyzed reaction of luciferin and ATP. The percent of growth inhibition was calculated using the following formula: (untreated cells − treated cells)/(untreated cells − background without cells) ∗ 100.

SMILES | Percent Inhibition [%]
COc1cc(O)c2c(=O)c3cc4c(c(O)c3oc2c1CC=C(C)C)OC(C)(C)C=C4 [gl-12] | 11

tested on: A704; assay: Cell panel screen (CellTiter-Glo); assay type: cell-based, human; details: A704 (Kidney), 20 micromolar, 72 hrs
Procedure: as §1

SMILES | Percent Inhibition [%]
COc1cc(O)c2c(=O)c3cc4c(c(O)c3oc2c1CC=C(C)C)OC(C)(C)C=C4 [gl-12] | 3

tested on: BT-474; assay: Cell panel screen (CellTiter-Glo); assay type: cell-based, human; details: BT-474 (Breast), 20 micromolar, 72 hrs
Procedure: as §1

SMILES | Percent Inhibition [%]
COc1cc(O)c2c(=O)c3cc4c(c(O)c3oc2c1CC=C(C)C)OC(C)(C)C=C4 [gl-12] | -2

tested on: BT-549; assay: Cell panel screen (CellTiter-Glo); assay type: cell-based, human; details: BT-549 (Breast), 20 micromolar, 72 hrs
Procedure: as §1

SMILES | Percent Inhibition [%]
COc1cc(O)c2c(=O)c3cc4c(c(O)c3oc2c1CC=C(C)C)OC(C)(C)C=C4 [gl-12] | -2

tested on: Bel-7402; assay: Cell panel screen (CellTiter-Glo); assay type: cell-based, human; details: Bel-7402 (Liver), 20 micromolar, 72 hrs
Procedure: as §1

SMILES | Percent Inhibition [%]
COc1cc(O)c2c(=O)c3cc4c(c(O)c3oc2c1CC=C(C)C)OC(C)(C)C=C4 [gl-12] | 5

tested on: C3A; assay: Cell panel screen (CellTiter-Glo); assay type: cell-based, human; details: C3A (Liver), 20 micromolar, 72 hrs
Procedure: as §1

SMILES | Percent Inhibition [%]
COc1cc(O)c2c(=O)c3cc4c(c(O)c3oc2c1CC=C(C)C)OC(C)(C)C=C4 [gl-12] | 7

tested on: C8166; assay: Cell panel screen (CellTiter-Glo); assay type: cell-based, human; details: C8166 (Leukemia), 20 micromolar, 72 hrs
Procedure: as §1

SMILES | Percent Inhibition [%]
COc1cc(O)c2c(=O)c3cc4c(c(O)c3oc2c1CC=C(C)C)OC(C)(C)C=C4 [gl-12] | 25

tested on: CCF-STTG1; assay: Cell panel screen (CellTiter-Glo); assay type: cell-based, human; details: CCF-STTG1 (Brain), 20 micromolar, 72 hrs
Procedure: as §1

SMILES | Percent Inhibition [%]
COc1cc(O)c2c(=O)c3cc4c(c(O)c3oc2c1CC=C(C)C)OC(C)(C)C=C4 [gl-12] | 16

tested on: CW-2; assay: Cell panel screen (CellTiter-Glo); assay type: cell-based, human; details: CW-2 (Colon), 20 micromolar, 72 hrs
Procedure: as §1

SMILES | Percent Inhibition [%]
COc1cc(O)c2c(=O)c3cc4c(c(O)c3oc2c1CC=C(C)C)OC(C)(C)C=C4 [gl-12] | 28

tested on: ChaGo-K-1; assay: Cell panel screen (CellTiter-Glo); assay type: cell-based, human; details: ChaGo-K-1 (Lung), 20 micromolar, 72 hrs
Procedure: as §1

SMILES | Percent Inhibition [%]
COc1cc(O)c2c(=O)c3cc4c(c(O)c3oc2c1CC=C(C)C)OC(C)(C)C=C4 [gl-12] | 38

tested on: Colo 205; assay: Cell panel screen (CellTiter-Glo); assay type: cell-based, human; details: Colo 205, 20 micromolar, 72 hrs
Procedure: as §1

SMILES | Percent Inhibition [%]
COc1cc(O)c2c(=O)c3cc4c(c(O)c3oc2c1CC=C(C)C)OC(C)(C)C=C4 [gl-12] | 10

tested on: HCC1395; assay: Cell panel screen (CellTiter-Glo); assay type: cell-based, human; details: HCC1395 (Breast), 20 micromolar, 72 hrs
Procedure: as §1

SMILES | Percent Inhibition [%]
COc1cc(O)c2c(=O)c3cc4c(c(O)c3oc2c1CC=C(C)C)OC(C)(C)C=C4 [gl-12] | 22

tested on: HCC1569; assay: Cell panel screen (CellTiter-Glo); assay type: cell-based, human; details: HCC1569 (Breast), 20 micromolar, 72 hrs
Procedure: as §1

SMILES | Percent Inhibition [%]
COc1cc(O)c2c(=O)c3cc4c(c(O)c3oc2c1CC=C(C)C)OC(C)(C)C=C4 [gl-12] | 19

tested on: HCC1599; assay: Cell panel screen (CellTiter-Glo); assay type: cell-based, human; details: HCC1599 (Breast), 20 micromolar, 72 hrs
Procedure: as §1

SMILES | Percent Inhibition [%]
COc1cc(O)c2c(=O)c3cc4c(c(O)c3oc2c1CC=C(C)C)OC(C)(C)C=C4 [gl-12] | 52

tested on: HCC1937; assay: Cell panel screen (CellTiter-Glo); assay type: cell-based, human; details: HCC1937 (Breast), 20 micromolar, 72 hrs
Procedure: as §1

SMILES | Percent Inhibition [%]
COc1cc(O)c2c(=O)c3cc4c(c(O)c3oc2c1CC=C(C)C)OC(C)(C)C=C4 [gl-12] | -7

tested on: HEC-1-A; assay: Cell panel screen (CellTiter-Glo); assay type: cell-based, human; details: HEC-1-A (Uterus), 20 micromolar, 72 hrs
Procedure: as §1

SMILES | Percent Inhibition [%]
COc1cc(O)c2c(=O)c3cc4c(c(O)c3oc2c1CC=C(C)C)OC(C)(C)C=C4 [gl-12] | 13

tested on: HGC-27; assay: Cell panel screen (CellTiter-Glo); assay type: cell-based, human; details: HGC-27 (Stomach), 20 micromolar, 72 hrs
Procedure: as §1

SMILES | Percent Inhibition [%]
COc1cc(O)c2c(=O)c3cc4c(c(O)c3oc2c1CC=C(C)C)OC(C)(C)C=C4 [gl-12] | 34

tested on: HPAF-II; assay: Cell panel screen (CellTiter-Glo); assay type: cell-based, human; details: HPAF-II (Pancreas), 20 micromolar, 72 hrs
Procedure: as §1

SMILES | Percent Inhibition [%]
COc1cc(O)c2c(=O)c3cc4c(c(O)c3oc2c1CC=C(C)C)OC(C)(C)C=C4 [gl-12] | 21

tested on: HT-1197; assay: Cell panel screen (CellTiter-Glo); assay type: cell-based, human; details: HT-1197 (Urinary bladder), 20 micromolar, 72 hrs
Procedure: as §1

SMILES | Percent Inhibition [%]
COc1cc(O)c2c(=O)c3cc4c(c(O)c3oc2c1CC=C(C)C)OC(C)(C)C=C4 [gl-12] | 20

tested on: J82; assay: Cell panel screen (CellTiter-Glo); assay type: cell-based, human; details: J82 (Urinary bladder), 20 micromolar, 72 hrs
Procedure: as §1

SMILES | Percent Inhibition [%]
COc1cc(O)c2c(=O)c3cc4c(c(O)c3oc2c1CC=C(C)C)OC(C)(C)C=C4 [gl-12] | 17

tested on: M059J; assay: Cell panel screen (CellTiter-Glo); assay type: cell-based, human; details: M059J (Brain), 20 micromolar, 72 hrs
Procedure: as §1

SMILES | Percent Inhibition [%]
COc1cc(O)c2c(=O)c3cc4c(c(O)c3oc2c1CC=C(C)C)OC(C)(C)C=C4 [gl-12] | 27

tested on: MSTO-211-H; assay: Cell panel screen (CellTiter-Glo); assay type: cell-based, human; details: MSTO-211-H (Lung), 20 micromolar, 72 hrs
Procedure: as §1

SMILES | Percent Inhibition [%]
COc1cc(O)c2c(=O)c3cc4c(c(O)c3oc2c1CC=C(C)C)OC(C)(C)C=C4 [gl-12] | -5

tested on: NCI-H1623; assay: Cell panel screen (CellTiter-Glo); assay type: cell-based, human; details: NCI-H1623 (Lung), 20 micromolar, 72 hrs
Procedure: as §1

SMILES | Percent Inhibition [%]
COc1cc(O)c2c(=O)c3cc4c(c(O)c3oc2c1CC=C(C)C)OC(C)(C)C=C4 [gl-12] | 5

tested on: NCI-H1694; assay: Cell panel screen (CellTiter-Glo); assay type: cell-based, human; details: NCI-H1694 (Lung), 20 micromolar, 72 hrs
Procedure: as §1

SMILES | Percent Inhibition [%]
COc1cc(O)c2c(=O)c3cc4c(c(O)c3oc2c1CC=C(C)C)OC(C)(C)C=C4 [gl-12] | 28

tested on: NCI-H1770; assay: Cell panel screen (CellTiter-Glo); assay type: cell-based, human; details: NCI-H1770 (Lung), 20 micromolar, 72 hrs
Procedure: as §1

SMILES | Percent Inhibition [%]
COc1cc(O)c2c(=O)c3cc4c(c(O)c3oc2c1CC=C(C)C)OC(C)(C)C=C4 [gl-12] | 34

tested on: NCI-H2347; assay: Cell panel screen (CellTiter-Glo); assay type: cell-based, human; details: NCI-H2347 (Lung), 20 micromolar, 72 hrs
Procedure: as §1

SMILES | Percent Inhibition [%]
COc1cc(O)c2c(=O)c3cc4c(c(O)c3oc2c1CC=C(C)C)OC(C)(C)C=C4 [gl-12] | 9

tested on: NCI-H2405; assay: Cell panel screen (CellTiter-Glo); assay type: cell-based, human; details: NCI-H2405 (Lung), 20 micromolar, 72 hrs
Procedure: as §1

SMILES | Percent Inhibition [%]
COc1cc(O)c2c(=O)c3cc4c(c(O)c3oc2c1CC=C(C)C)OC(C)(C)C=C4 [gl-12] | 11

tested on: NCI-H28; assay: Cell panel screen (CellTiter-Glo); assay type: cell-based, human; details: NCI-H28 (Lung), 20 micromolar, 72 hrs
Procedure: as §1

SMILES | Percent Inhibition [%]
COc1cc(O)c2c(=O)c3cc4c(c(O)c3oc2c1CC=C(C)C)OC(C)(C)C=C4 [gl-12] | 2

tested on: NCI-H524; assay: Cell panel screen (CellTiter-Glo); assay type: cell-based, human; details: NCI-H524 (Lung), 20 micromolar, 72 hrs
Procedure: as §1

SMILES | Percent Inhibition [%]
COc1cc(O)c2c(=O)c3cc4c(c(O)c3oc2c1CC=C(C)C)OC(C)(C)C=C4 [gl-12] | -2

tested on: Panc 03.27; assay: Cell panel screen (CellTiter-Glo); assay type: cell-based, human; details: Panc 03.27 (Pancreas), 20 micromolar, 72 hrs
Procedure: as §1

SMILES | Percent Inhibition [%]
COc1cc(O)c2c(=O)c3cc4c(c(O)c3oc2c1CC=C(C)C)OC(C)(C)C=C4 [gl-12] | 24

tested on: RL95; assay: Cell panel screen (CellTiter-Glo); assay type: cell-based, human; details: RL95 (Uterus), 20 micromolar, 72 hrs
Procedure: as §1

SMILES | Percent Inhibition [%]
COc1cc(O)c2c(=O)c3cc4c(c(O)c3oc2c1CC=C(C)C)OC(C)(C)C=C4 [gl-12] | 23

tested on: SW13; assay: Cell panel screen (CellTiter-Glo); assay type: cell-based, human; details: SW13 (Adrenal gland), 20 micromolar, 72 hrs
Procedure: as §1

SMILES | Percent Inhibition [%]
COc1cc(O)c2c(=O)c3cc4c(c(O)c3oc2c1CC=C(C)C)OC(C)(C)C=C4 [gl-12] | -2

tested on: T47D; assay: Cell panel screen (CellTiter-Glo); assay type: cell-based, human; details: T47D (Breast), 20 micromolar, 72 hrs
Procedure: as §1

SMILES | Percent Inhibition [%]
COc1cc(O)c2c(=O)c3cc4c(c(O)c3oc2c1CC=C(C)C)OC(C)(C)C=C4 [gl-12] | 21

tested on: T98G; assay: Cell panel screen (CellTiter-Glo); assay type: cell-based, human; details: T98G (Brain), 20 micromolar, 72 hrs
Procedure: as §1

SMILES | Percent Inhibition [%]
COc1cc(O)c2c(=O)c3cc4c(c(O)c3oc2c1CC=C(C)C)OC(C)(C)C=C4 [gl-12] | 28

tested on: TCCSUP; assay: Cell panel screen (CellTiter-Glo); assay type: cell-based, human; details: TCCSUP (Urinary bladder), 20 micromolar, 72 hrs
Procedure: as §1

SMILES | Percent Inhibition [%]
COc1cc(O)c2c(=O)c3cc4c(c(O)c3oc2c1CC=C(C)C)OC(C)(C)C=C4 [gl-12] | 11

tested on: ZR-75-30; assay: Cell panel screen (CellTiter-Glo); assay type: cell-based, human; details: ZR-75-30 (Breast), 20 micromolar, 72 hrs
Procedure: as §1

SMILES | Percent Inhibition [%]
COc1cc(O)c2c(=O)c3cc4c(c(O)c3oc2c1CC=C(C)C)OC(C)(C)C=C4 [gl-12] | 54
